Results as given in ChEMBL document CHEMBL2203275, “Design and synthesis of novel bis-thiazolone derivatives as micromolar CDC25 phosphatase inhibitors: effect of dimerisation on phosphatase inhibition” (Bioorg Med Chem Lett, 2012).
pIC50: −log10 of the molar value. Blank lines part the entries; values can stand above or below the compound they belong to.

Assays:
[1] = molecular target: T1, M-phase inducer phosphatase 2 (Homo sapiens, UniProt P30305); experiment: Inhibition of MBP-fused recombinant wild type CDC25B3 using fluorescein 3,6 diphosphate as substrate measured for 30 mins in presence of 1 mM dithiothreitol
T1 sequence (P30305 whole entry): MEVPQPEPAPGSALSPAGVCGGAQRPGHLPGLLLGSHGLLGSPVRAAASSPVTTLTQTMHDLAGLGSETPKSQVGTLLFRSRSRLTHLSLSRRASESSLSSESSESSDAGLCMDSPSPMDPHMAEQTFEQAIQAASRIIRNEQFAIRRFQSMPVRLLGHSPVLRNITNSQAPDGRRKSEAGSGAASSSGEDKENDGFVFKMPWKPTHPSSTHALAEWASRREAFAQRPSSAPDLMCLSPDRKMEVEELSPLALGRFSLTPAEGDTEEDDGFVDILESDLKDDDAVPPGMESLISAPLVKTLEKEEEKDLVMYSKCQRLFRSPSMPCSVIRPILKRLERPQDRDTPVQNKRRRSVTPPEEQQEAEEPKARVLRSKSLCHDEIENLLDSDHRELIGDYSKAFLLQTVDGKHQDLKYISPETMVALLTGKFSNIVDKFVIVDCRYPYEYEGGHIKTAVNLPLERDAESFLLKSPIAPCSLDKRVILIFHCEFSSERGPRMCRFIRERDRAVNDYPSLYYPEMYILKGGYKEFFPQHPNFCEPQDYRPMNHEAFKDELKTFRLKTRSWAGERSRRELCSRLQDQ

[2] = molecular target: T2, Dual specificity protein phosphatase 3 (Homo sapiens, UniProt P51452); experiment: Inhibition of VHR using fluorescein 3,6 diphosphate as substrate measured for 1 hr in presence of 1 mM dithiothreitol
Target sequence in this assay (P51452 whole entry): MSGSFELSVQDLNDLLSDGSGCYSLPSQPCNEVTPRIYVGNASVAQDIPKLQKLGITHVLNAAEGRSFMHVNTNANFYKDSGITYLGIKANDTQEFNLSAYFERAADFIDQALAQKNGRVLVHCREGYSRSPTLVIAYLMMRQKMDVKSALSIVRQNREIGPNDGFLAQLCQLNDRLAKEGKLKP

[3] = molecular target: T3, Tyrosine-protein phosphatase non-receptor type 1 (Homo sapiens, UniProt P18031); experiment: Inhibition of PTP1B using fluorescein 3,6 diphosphate as substrate measured for 1 hr in presence of 1 mM dithiothreitol
T3 sequence (P18031 whole entry): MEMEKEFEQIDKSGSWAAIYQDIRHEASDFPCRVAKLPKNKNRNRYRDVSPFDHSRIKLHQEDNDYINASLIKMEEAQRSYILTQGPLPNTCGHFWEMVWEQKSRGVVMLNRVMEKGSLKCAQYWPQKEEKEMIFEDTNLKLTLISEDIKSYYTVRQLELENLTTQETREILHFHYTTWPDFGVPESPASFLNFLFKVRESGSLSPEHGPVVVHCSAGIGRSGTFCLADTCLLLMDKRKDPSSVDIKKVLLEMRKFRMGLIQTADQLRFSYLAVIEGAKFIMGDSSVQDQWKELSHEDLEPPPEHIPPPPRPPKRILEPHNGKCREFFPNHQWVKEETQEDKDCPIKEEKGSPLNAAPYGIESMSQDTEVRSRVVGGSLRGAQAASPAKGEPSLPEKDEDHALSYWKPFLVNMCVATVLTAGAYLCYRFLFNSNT

[4] = molecular target: T2, Dual specificity protein phosphatase 3; experiment: Inhibition of VHR using fluorescein 3,6 diphosphate as substrate at 100 uM measured for 1 hr in presence of 1 mM dithiothreitol
Target sequence in this assay (P51452 whole entry, looked up): as the sequence (P51452 whole entry) above

[5] = molecular target: T4, Tyrosine-protein phosphatase non-receptor type 1 (Homo sapiens) (UniProt P18031); experiment: Inhibition of PTP1B using fluorescein 3,6 diphosphate as substrate at 100 uM measured for 1 hr in presence of 1 mM dithiothreitol
T4 sequence (whole entry): T3 sequence (P18031 whole entry)

[6] = molecular target: T4, Tyrosine-protein phosphatase non-receptor type 1 (Homo sapiens); experiment: Inhibition of PTP1B using fluorescein 3,6 diphosphate as substrate at 10 uM measured for 1 hr in presence of 1 mM dithiothreitol
[7] = molecular target: T5, M-phase inducer phosphatase 2 (Homo sapiens) (UniProt P30305); experiment: Inhibition of MBP-fused recombinant wild type CDC25B3 using fluorescein 3,6 diphosphate as substrate at 100 uM measured for 30 mins in presence of 1 mM dithiothreitol
T5 sequence (whole entry): T1 sequence (P30305 whole entry)

[8] = molecular target: T4, Tyrosine-protein phosphatase non-receptor type 1 (Homo sapiens); experiment: Inhibition of PTP1B using fluorescein 3,6 diphosphate as substrate at 50 uM measured for 1 hr in presence of 1 mM dithiothreitol
[9] = molecular target: T2, Dual specificity protein phosphatase 3; experiment: Inhibition of VHR using fluorescein 3,6 diphosphate as substrate at 10 uM measured for 1 hr in presence of 1 mM dithiothreitol
Target sequence in this assay (P51452 whole entry, looked up): as the sequence (P51452 whole entry) above

[10] = molecular target: T1, M-phase inducer phosphatase 2; experiment: Inhibition of MBP-fused recombinant wild type CDC25B3 using fluorescein 3,6 diphosphate as substrate measured for 30 mins in presence of 10 mM dithiothreitol
[11] = molecular target: T1, M-phase inducer phosphatase 2; experiment: Inhibition of MBP-fused recombinant wild type CDC25B3 using fluorescein 3,6 diphosphate as substrate measured for 30 mins in presence of 20 mM dithiothreitol

pIC50 [2]: 4.12 | pIC50 [1]: 4.86 | pIC50 [3]: 4.69
SMILES: O=C1N=C(NCCCCCNC2=NC(=O)/C(=C/c3ccc(O)cc3)S2)S/C1=C\c1ccc(O)cc1

pIC50 [3]: 5.21
SMILES: O=C1N=C(NCCCCCCCCCNC2=NC(=O)/C(=C/c3ccc(O)cc3)S2)S/C1=C\c1ccc(O)cc1

pIC50 [3]: 4.55
SMILES: O=C1N=C(NCCCCNC2=NC(=O)/C(=C/c3ccc(O)cc3)S2)S/C1=C\c1ccc(O)cc1

inhibition [5]: 18%
SMILES: O=C1N=C(NCCN2CCN(CCNC3=NC(=O)/C(=C/c4ccc5[nH]ncc5c4)S3)CC2)S/C1=C\c1ccc(O)cc1

inhibition [8]: 50%
SMILES: O=C1N=C(NCCCc2cn(CCCNC3=NC(=O)/C(=C/c4ccc(O)cc4)S3)nn2)S/C1=C\c1ccc(O)cc1

pIC50 [3]: 4.51
SMILES: O=C1N=C(NCCCCCCCNC2=NC(=O)/C(=C/c3ccc(O)cc3)S2)S/C1=C\c1ccc(O)cc1

inhibition [4]: 55% | inhibition [8]: 20% | pIC50 [1]: 4.69
SMILES: O=C1N=C(NCCCn2cc(CCNC3=NC(=O)/C(=C/c4ccc(O)cc4)S3)nn2)S/C1=C\c1ccc(O)cc1

inhibition [4]: 29% | inhibition [5]: 19% | pIC50 [1]: 5.36
SMILES: O=C1N=C(NCCN2CCN(CCNC3=NC(=O)/C(=C/c4ccc5c(c4)OCO5)S3)CC2)S/C1=C\c1ccc(O)cc1

pIC50 [3]: 5.04
SMILES: O=C1N=C(NCc2cccc(CNC3=NC(=O)/C(=C/c4ccc(O)cc4)S3)c2)S/C1=C\c1ccc(O)cc1

inhibition [8]: 35%
SMILES: O=C1N=C(NCCCc2cn(CCNC3=NC(=O)/C(=C/c4ccc(O)cc4)S3)nn2)S/C1=C\c1ccc(O)cc1

inhibition [4]: 29% | pIC50 [1]: 5.41 | pIC50 [3]: 4.94
SMILES: O=C1N=C(NCCCCCCCCNC2=NC(=O)/C(=C/c3ccc(O)cc3)S2)S/C1=C\c1ccc(O)cc1

inhibition [8]: 25%
SMILES: O=C1N=C(NCCCn2cc(CNC3=NC(=O)/C(=C/c4ccc(O)cc4)S3)nn2)S/C1=C\c1ccc(O)cc1

pIC50 [3]: 4.91
SMILES: O=C1N=C(NCCCCCCNC2=NC(=O)/C(=C/c3ccc(O)cc3)S2)S/C1=C\c1ccc(O)cc1

inhibition [4]: 30% | pIC50 [1]: 5.18 | pIC50 [3]: 5.05
SMILES: O=C1N=C(NCC2CCCC(CNC3=NC(=O)/C(=C/c4ccc(O)cc4)S3)C2)S/C1=C\c1ccc(O)cc1 (stereo not drawn)

pIC50 [3]: 4.34
SMILES: O=C1N=C(NCCN2CCN(CCNC3=NC(=O)/C(=C/c4ccc(O)cc4)S3)CC2)S/C1=C\c1ccc(O)cc1

Second part, the compound before the results:

SMILES: CC1=CC(=O)c2ccccc2C1=O [MENADIONE]
pIC50 [1]: 5.66

SMILES: O=C1N=C(NCCCCCCCNC2=NC(=O)/C(=C/C=C/c3ccccc3)S2)S/C1=C\C=C\c1ccccc1
inhibition [4]: 34% | inhibition [5]: 51% | pIC50 [1]: 5.11

SMILES: O=C1N=C(NCCCCCCCNC2=NC(=O)/C(=C/c3ccc4c(c3)OCO4)S2)S/C1=C\c1ccc2c(c1)OCO2
inhibition [4]: 27% | inhibition [5]: 30% | pIC50 [1]: 4.86

SMILES: CCCCNC1=NC(=O)/C(=C/c2ccc(O)cc2)S1
inhibition [5]: 35%

SMILES: O=C1N=C(NCCN2CCN(CCNC3=NC(=O)/C(=C/c4cc(Br)c(O)c(Br)c4)S3)CC2)S/C1=C\c1ccc(O)cc1
inhibition [6]: 33% | inhibition [5]: 100%

SMILES: O=C1N=C(NCCCCCCCNC2=NC(=O)/C(=C/c3ccccc3)S2)S/C1=C\c1ccccc1
pIC50 [3]: 4.38

SMILES: O=C1N=C(NCc2ccccc2)S/C1=C\c1ccc(O)cc1
inhibition [4]: 8% | inhibition [5]: 46% | inhibition [7]: 45%

SMILES: CCCCCNC1=NC(=O)/C(=C/c2ccc(O)cc2)S1
inhibition [5]: 35%

SMILES: COc1cc(/C=C2\SC(NCCCCCCCNC3=NC(=O)/C(=C/c4cc(OC)c(O)c(OC)c4)S3)=NC2=O)cc(OC)c1O
inhibition [5]: 2%

SMILES: O=C1N=C(NCCN2CCN(CCNC3=NC(=O)/C(=C/c4ccc(O)cc4)S3)CC2)S/C1=C\C=C\c1ccccc1
inhibition [5]: 13%

SMILES: O=C(O)/C=C/c1ccc(/C=C2\SC(NCCCCCCCNC3=NC(=O)/C(=C/c4ccc(/C=C/C(=O)O)cc4)S3)=NC2=O)cc1
pIC50 [3]: 4.57

SMILES: CNC1=NC(=O)/C(=C/c2ccc(O)cc2)S1
inhibition [5]: 32%

SMILES: O=C1N=C(NCCCCCCCNC2=NC(=O)/C(=C/c3ccc(O)c(O)c3)S2)S/C1=C\c1ccc(O)c(O)c1
pIC50 [3]: 4.63

SMILES: O=C1N=C(NCCCCCCCNC2=NC(=O)/C(=C/c3cc(Br)c(O)c(Br)c3)S2)S/C1=C\c1cc(Br)c(O)c(Br)c1
inhibition [4]: 100% | pIC50 [1]: 5.86 | inhibition [9]: 31% | pIC50 [10]: 5.51 | pIC50 [3]: 4.62 | pIC50 [11]: 5.49

SMILES: O=C1N=C(NCCN2CCN(CCNC3=NC(=O)/C(=C/c4ccc(O)cc4)S3)CC2)S/C1=C\C=C\c1ccco1
inhibition [5]: 39%

SMILES: O=C1N=C(NCCCCCCCNC2=NC(=O)/C(=C/c3ccc(-c4ccccc4)o3)S2)S/C1=C\c1ccc(-c2ccccc2)o1
inhibition [5]: 50%
